Counter-ions that a name gives are not always drawn.
Experiments:
[1] = tested on: shunt pathway activated by cobra venom factor; experiment: Test, Code 036 (C-Shunt inhibitor); type: cell-based; conditions: serial two-fold dilution assay; lysis of fragile human erythrocytes in autologous serum
[2] = target: activated human C1 (Homo sapiens, UniProt P09871); experiment: Test, Code 026 (C1 inhibitor); type: biochemical; conditions: serial two-fold dilution assay; higher well numbers indicate higher activity; protection of human C2 from C1 and C4
Procedure: (§1) This test measures the ability of activated human C1 to destroy fluid phase human C2 in the presence of C4 and appropriate dilutions of the test compound. An active inhibitor protects C2 from C1 and C4; (ii) Test, Code 035 (C3-C9 inhibitor) - This test determines the ability of the late components of human complement (C3-C9) to lyse EAC 142 in the presence of appropriate dilutions of the test compound. […] The lesion is measured in terms of diameter, edema and hemorrhage and the extent to which a combined index of these is inhibited by prior intraperitoneal injection of the test compound at […] is then reported, unless otherwise stated; (v) Forssman Shock Test -- Lethal shock is produced in guinea pigs by an i.v. injection of anti-Forssman antiserum and the harmonic mean death time of treated guinea pigs is compared with that of simultaneous controls; (vi) Complement Level Reduction Test -- In this test, the above dosed guinea pigs, or others, are bled for serum and the complement level is determined in undiluted serum by the capillary tube method of U.S. Pat. No. 3,876,376 and compared to undosed control guinea pigs; and (vii) Cap 50 Test -- Here, appropriate amounts of the test compound are added to a pool of guinea pig serum in vitro, after which the undiluted serum capillary tube assay referred to above is run. […]

[3] = tested on: late components of human complement (C3-C9); experiment: Test, Code 035 (C3-C9 inhibitor); type: biochemical; parameters: key: N = negative; conditions: serial two-fold dilution assay; protection of EAC 142 from lysis by human C3-C9
Procedure: as §1

| Compound | In Vitro Activity Shunt Inhibition 036 Wells [1] | In Vitro Activity C1 026 Wells [2] | In Vitro Activity C-Late 035 Wells [3] |
| --- | --- | --- | --- |
| O=S(=O)(O)OC[C@H]1O[C@H](OS(=O)(=O)O)[C@H](NS(=O)(=O)c2cc(S(=O)(=O)N[C@H]3[C@@H](OS(=O)(=O)O)O[C@H](COS(=O)(=O)O)[C@@H](OS(=O)(=O)O)[C@@H]3OS(=O)(=O)O)cc(S(=O)(=O)N[C@H]3[C@@H](OS(=O)(=O)O)O[C@H](COS(=O)(=O)O)[C@@H](OS(=O)(=O)O)[C@@H]3OS(=O)(=O)O)c2)[C@@H](OS(=O)(=O)O)[C@@H]1OS(=O)(=O)O [2,2',2"-[ s-Phenenyltris(sulfonylimino)]-tris[2-deoxy-α-D-gl] [2,2',2"-[s-Phenenyltris(sulfonylimino)]tris[2-deoxy-α-D-glucopyranose], dodecakis (H-sulfate) dodecasalt with trimethylamine] | +2 Wells |  |  |
| O=S(=O)(O)OC[C@H]1O[C@H](OS(=O)(=O)O)[C@H](NS(=O)(=O)c2cc(S(=O)(=O)N[C@H]3[C@@H](OS(=O)(=O)O)O[C@H](COS(=O)(=O)O)[C@@H](OS(=O)(=O)O)[C@@H]3OS(=O)(=O)O)cc(S(=O)(=O)N[C@H]3[C@@H](OS(=O)(=O)O)O[C@H](COS(=O)(=O)O)[C@@H](OS(=O)(=O)O)[C@@H]3OS(=O)(=O)O)c2)[C@@H](OS(=O)(=O)O)[C@@H]1OS(=O)(=O)O [2,2',2"-[s-Phenenyltris(sulfonylimino)]-tris[2-deoxy-α-D-glu] [2,2',2"-[s-Phenenyltris(sulfonylimino)]tris[2-deoxy-α-D-glucopyranose], dodecakis (H-sulfate) dodecasodium salt] | +1 Wells |  |  |
| O=S(=O)(O)OC[C@H]1O[C@H](OS(=O)(=O)O)[C@H](NS(=O)(=O)c2cc(S(=O)(=O)N[C@H]3[C@@H](OS(=O)(=O)O)O[C@H](COS(=O)(=O)O)[C@@H](OS(=O)(=O)O)[C@@H]3OS(=O)(=O)O)cc(S(=O)(=O)N[C@H]3[C@@H](OS(=O)(=O)O)O[C@H](COS(=O)(=O)O)[C@@H](OS(=O)(=O)O)[C@@H]3OS(=O)(=O)O)c2)[C@@H](OS(=O)(=O)O)[C@@H]1OS(=O)(=O)O [2,2',2"-[s-Phenenyltris(sulfonylimino)]tris[2-deoxy-α-D-glucopyranose], dodecakis (H-sulfate) dodecasalt with trimethylamine] |  | +7 Wells | N |

Source: patent US4120953A, “Novel 2,2', 2"-[s-phenenyltris(sulfonylimino)tris]-[2-deoxy-α-D-glucopyranose] , dodecakis (H-sulfate) compounds and their salts” (American Cyanamid Company, priority 1977, dated 1978)
